Experimental data: patent US20240034743A9, “TRICYCLIC COMPOUNDS AS EGFR INHIBITORS” (QILU PHARMACEUTICAL CO., LTD., priority 2020, published 2024)
Where two headings read alike, the source gives them in different places.

Columns and labels:
[1] = system: Ba/F3_Del19/T790M/C797S cells; experiment: Ba/F3_Del19/T790M/C797S cell proliferation inhibition assay (CellTiter-Glo); type: cell-based
Summary of the method: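 IC50 for growth inhibition came from CellTiter-Glo chemiluminescence after a 72 h, 37° C compound exposure. Ba/F3_Del19/T790M/C797S cells were plated at 700/well, and compound was dosed in gradient with 0.1% final DMSO.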

[2] = system: Ba/F3_L858R/T790M/C797S cells; experiment: Ba/F3_L858R/T790M/C797S cell proliferation inhibition assay (CellTiter-Glo); type: cell-based
Summary of the method: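 Proliferation IC50 derived from CellTiter-Glo luminescence in Ba/F3 cells expressing triple-mutant EGFR (L858R/T790M/C797S). Cells (700/well) incubated 72 h with graded compound doses at 0.1% DMSO final, 37 °C, 5% CO2; reagent developed 30 min at room temperature in the dark.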

EGFR L858R/T790M/C797S = EGFR L858R/T790M/C797S (Homo sapiens (Human), UniProt P00533, C797S/L858R/T790M); experiment: In vitro enzymatic TR-FRET (HTRF KinEASE-TK) kinase assay, EGFR L858R/T790M/C797S; type: biochemical; details: kinase activity
Sequence of EGFR L858R/T790M/C797S (P00533 25-1210 T790M/C797S/L858R): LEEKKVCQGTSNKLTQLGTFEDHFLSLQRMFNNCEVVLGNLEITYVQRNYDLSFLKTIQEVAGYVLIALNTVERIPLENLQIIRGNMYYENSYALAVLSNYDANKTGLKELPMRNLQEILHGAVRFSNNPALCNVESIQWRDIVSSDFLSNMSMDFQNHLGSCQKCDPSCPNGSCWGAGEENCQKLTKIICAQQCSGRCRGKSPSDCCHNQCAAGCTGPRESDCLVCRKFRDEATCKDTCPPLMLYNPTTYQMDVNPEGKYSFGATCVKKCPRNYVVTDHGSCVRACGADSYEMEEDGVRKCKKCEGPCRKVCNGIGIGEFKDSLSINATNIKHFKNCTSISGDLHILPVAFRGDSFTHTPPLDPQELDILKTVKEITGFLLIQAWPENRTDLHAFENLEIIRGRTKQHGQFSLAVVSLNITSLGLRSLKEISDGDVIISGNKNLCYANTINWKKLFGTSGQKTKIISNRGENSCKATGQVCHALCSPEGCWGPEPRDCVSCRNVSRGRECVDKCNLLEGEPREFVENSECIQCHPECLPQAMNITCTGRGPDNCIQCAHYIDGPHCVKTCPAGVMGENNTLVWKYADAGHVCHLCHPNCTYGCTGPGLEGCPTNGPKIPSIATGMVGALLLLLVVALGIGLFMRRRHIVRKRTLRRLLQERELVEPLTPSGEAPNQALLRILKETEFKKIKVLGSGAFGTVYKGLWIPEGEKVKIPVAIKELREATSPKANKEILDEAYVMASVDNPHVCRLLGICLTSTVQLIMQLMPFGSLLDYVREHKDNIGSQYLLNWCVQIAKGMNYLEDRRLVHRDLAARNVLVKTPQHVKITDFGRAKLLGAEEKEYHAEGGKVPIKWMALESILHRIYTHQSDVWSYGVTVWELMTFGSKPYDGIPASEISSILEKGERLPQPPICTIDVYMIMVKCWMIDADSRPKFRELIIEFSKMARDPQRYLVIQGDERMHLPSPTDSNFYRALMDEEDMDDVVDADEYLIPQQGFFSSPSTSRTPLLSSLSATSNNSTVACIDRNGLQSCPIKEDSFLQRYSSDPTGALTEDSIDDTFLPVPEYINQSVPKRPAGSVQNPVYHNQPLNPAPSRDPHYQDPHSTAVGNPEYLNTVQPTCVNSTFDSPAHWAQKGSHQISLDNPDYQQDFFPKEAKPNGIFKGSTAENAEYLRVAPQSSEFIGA
Experimental: (I) In Vitro Enzymatic Experiment for EGFR WT and EGFR L858R/T790M/C797S
In the assay, the inhibition effect of the compound on the kinase activity of EGFR WT (wild type EGFR) and EGFR L858R/T790M/C797S was tested by adopting a time-resolved fluorescence resonance energy transfer (TR-FRET) method, and half maximal inhibitory concentration IC50 of the compound on the kinase activity of EGFR was obtained.
EGFR recombinase and EGFR L858R/T790M/C797S recombinase, purchased from Signalchem.
HTRF KinEASE-TK kit, purchased from Cisbio.
DTT, MnCl2, and MgCl2, purchased from Sigma.
ATP, purchased from Promega.
Brigatinib, purchased from Selleck.
1) 1× working solution was prepared: 5 mM MgCl2; 1 mM DTT; 1 mM MnCl2 and 1× kinase buffer (in kit).
2) […] of gradiently-diluted compound was transferred to a 384-well plate using Echo 550 (Labcyte).
3) 5 μL of 2× EGFR WT or EGFR L858R/T790M/C797S recombinase solution was added to the 384-well plate, and the plate was incubated at room temperature for 10 min.
4) 5 μL of 2× TK-substrate-biotin substrate solution (containing ATP) was added to the 384-well plate, and the plate was incubated at room temperature for 40 min.
5) 5 μL of assay solution containing Sa-XL 665 HTRF and 5 μL of TK-antibody-Cryptatewas were added to the plate, and the plate was incubated at room temperature for 1 h.
6) The fluorescence signal values at 615 nm and 665 nm were measured for each well using an Envision microplate reader (PerkinElmer).
7) The ratio of fluorescence signal values at 665 nm and 615 nm was calculated for each well.
8) Data analysis was performed using GraphPad Prism software to give the IC50 for compounds.

EGFR WT (wild type EGFR) = EGFR WT (wild type EGFR) (Homo sapiens (Human), UniProt P00533); experiment: In vitro enzymatic TR-FRET (HTRF KinEASE-TK) kinase assay, EGFR WT; type: biochemical; details: kinase activity, TR-FRET; read-out: EGFR (WT) IC50
Sequence of EGFR WT (wild type EGFR) (P00533 25-1210): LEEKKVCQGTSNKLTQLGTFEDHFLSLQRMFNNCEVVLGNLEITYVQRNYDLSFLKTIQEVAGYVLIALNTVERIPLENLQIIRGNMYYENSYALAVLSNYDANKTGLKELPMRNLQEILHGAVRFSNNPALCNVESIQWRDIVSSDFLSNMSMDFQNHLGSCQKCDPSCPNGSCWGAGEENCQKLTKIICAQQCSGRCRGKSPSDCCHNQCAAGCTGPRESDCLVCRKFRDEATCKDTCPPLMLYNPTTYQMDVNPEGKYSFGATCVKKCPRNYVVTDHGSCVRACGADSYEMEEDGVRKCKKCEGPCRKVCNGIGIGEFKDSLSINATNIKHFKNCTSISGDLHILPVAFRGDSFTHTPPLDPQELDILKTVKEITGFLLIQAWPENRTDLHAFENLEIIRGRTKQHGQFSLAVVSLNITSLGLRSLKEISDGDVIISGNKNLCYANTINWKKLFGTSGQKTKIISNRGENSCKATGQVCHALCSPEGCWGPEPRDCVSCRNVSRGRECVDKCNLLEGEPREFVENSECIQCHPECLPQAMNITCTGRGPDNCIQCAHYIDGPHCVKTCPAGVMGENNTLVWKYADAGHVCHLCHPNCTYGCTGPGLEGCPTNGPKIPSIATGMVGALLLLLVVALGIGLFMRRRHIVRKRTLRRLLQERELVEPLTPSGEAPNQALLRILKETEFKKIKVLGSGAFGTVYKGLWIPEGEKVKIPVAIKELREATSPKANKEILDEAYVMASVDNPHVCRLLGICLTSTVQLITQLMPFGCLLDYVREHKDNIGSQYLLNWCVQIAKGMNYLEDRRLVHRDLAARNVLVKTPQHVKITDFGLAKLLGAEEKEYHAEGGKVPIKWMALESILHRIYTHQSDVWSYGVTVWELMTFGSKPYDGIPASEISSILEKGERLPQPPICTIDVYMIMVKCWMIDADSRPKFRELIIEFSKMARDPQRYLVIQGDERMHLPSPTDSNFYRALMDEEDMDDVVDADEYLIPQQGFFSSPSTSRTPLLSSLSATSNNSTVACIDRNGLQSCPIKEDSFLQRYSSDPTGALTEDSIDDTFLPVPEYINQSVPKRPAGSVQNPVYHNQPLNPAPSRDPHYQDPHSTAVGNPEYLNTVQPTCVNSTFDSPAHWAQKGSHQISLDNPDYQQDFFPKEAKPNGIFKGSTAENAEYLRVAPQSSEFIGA
Summary of the method: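 IC50 derived from the 665/615 nm TR-FRET ratio after 1 h with streptavidin-XL665 and Cryptate-labelled TK antibody. Kinase reaction ran 40 min at room temperature with biotin-TK substrate and ATP, following 10 min compound–enzyme preincubation. Buffer: 5 mM MgCl2, 1 mM MnCl2, 1 mM DTT.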

A431 cells (EGFR WT) = experiment: A431 cell proliferation inhibition assay (CellTiter-Glo); type: cell-based
Summary of the method: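 CellTiter-Glo luminescence quantified growth after 72 h treatment with serially diluted compounds (final DMSO 0.1%), following a 24 h attachment period at 37° C, 5% CO2. Signal read after 30 min dark incubation at room temperature, with half-maximal growth inhibition reported as IC50.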

[3] = Mus musculus, BaF3, cell proliferation, 72 h, CellTiter-Glo, read-out: Ba/F3 (Del19/T790M/C797S) IC50
[4] = Mus musculus, BaF3, cell proliferation, 72 h, CellTiter-Glo, read-out: Ba/F3 (L858R/T790M/C797S) IC50
[5] = Homo sapiens, A-431, cell proliferation, 72 h, CellTiter-Glo, read-out: A431 EGFR WT IC50
[6] = Mus musculus, BaF3, 72 h, read-out: Ba/F3 (Del19/T790M/C797S) IC50(nM)
[7] = Mus musculus, BaF3, 72 h, read-out: Ba/F3 (L858R/T790M/C797S) IC50(nM)
[8] = Homo sapiens, A-431, 72 h, read-out: A431 EGFR WT IC50(nM)

Cc1cnc(Nc2cc3c(cc2OC(C)C)N(C)CCc2c-3cnn2C)nc1Nc1ccccc1P(C)(C)=O [Compound 18] was tested, and the IC50 [1, 3] was 50 to 100 nM, the IC50 [2, 4] was 100 to 1000 nM and the IC50 (EGFR L858R/T790M/C797S) was 1 to 10 nM. For the same molecule, the IC50 (EGFR WT (wild type EGFR)) was 50 to 100 nM and the IC50 (A431 cells (EGFR WT); [5]) was greater than 1000 nM.

COc1cc2c(cc1Nc1ncc(Br)c(Nc3ccccc3NS(C)(=O)=O)n1)-c1cnn(C)c1CCN2 [Compound 121] showed an IC50 [1, 6] of less than 10 nM, an IC50 [2, 7] of less than 10 nM and an IC50 (EGFR L858R/T790M/C797S) of 1 to 10 nM. It also gave an IC50 (EGFR WT (wild type EGFR)) of 100 to 1000 nM and an IC50 (A431 cells (EGFR WT); [8]) of 100 to 1000 nM.

COc1cc2c(cc1Nc1ncc(Br)c(Nc3ccccc3P(C)(C)=O)n1)-c1cnn(C3COC3)c1CCN2C(C)C [Compound 77A] was tested, and the IC50 ([1]; cell proliferation, 72 h, CellTiter-Glo, read-out: Ba/F3 (Del19/T790M/C797S) IC50) was less than 10 nM, the IC50 ([2]; cell proliferation, 72 h, CellTiter-Glo, read-out: Ba/F3 (L858R/T790M/C797S) IC50) was 10 to 50 nM and the IC50 (EGFR L858R/T790M/C797S) was less than 1 nM. It also gave an IC50 (EGFR WT (wild type EGFR)) of 1 to 10 nM and an IC50 (A431 cells (EGFR WT); cell proliferation, 72 h, CellTiter-Glo, read-out: A431 EGFR WT IC50) of 100 to 1000 nM.

COc1cc2c(cc1Nc1ncc(F)c(Nc3ccccc3P(C)(C)=O)n1)-c1cnn(C)c1CCN2C [Compound 17] gave an IC50 [1, 3] of 10 to 50 nM, an IC50 [2, 4] of 50 to 100 nM and an IC50 (EGFR L858R/T790M/C797S) of 1 to 10 nM. The IC50 (EGFR WT (wild type EGFR)) was 1 to 10 nM and the IC50 (A431 cells (EGFR WT); [5]) was 100 to 1000 nM.

For COc1cc2c(cc1Nc1ncc(Br)c(Nc3ccc4nccnc4c3C(N)=O)n1)-c1cnn(C)c1CCN2C(C)C [Compound 115], the IC50 [1, 3] was less than 10 nM, the IC50 [2, 4] was 10 to 50 nM and the IC50 (EGFR L858R/T790M/C797S) was 1 to 10 nM. The IC50 (A431 cells (EGFR WT); [5]) was greater than 1000 nM.

With COc1cc2c(cc1Nc1ncc(Br)c(Nc3ccc4nccnc4c3P(C)(C)=O)n1)-c1cnn(C)c1CCN2C1CN(C)C1 [Compound 10] the IC50 [1, 3] was less than 10 nM, the IC50 [2, 4] was less than 10 nM and the IC50 (EGFR L858R/T790M/C797S) was less than 1 nM. For the same molecule, the IC50 (EGFR WT (wild type EGFR)) was less than 1 nM and the IC50 (A431 cells (EGFR WT); [5]) was 10 to 50 nM.

COc1cc2c(cc1Nc1ncc(Br)c(Nc3ccc4nccnc4c3NS(C)(=O)=O)n1)-c1cccnc1CCN2C(C)C [Compound 116] was tested, and the IC50 [1, 3] was 10 to 50 nM, the IC50 [2, 4] was 50 to 100 nM and the IC50 (EGFR L858R/T790M/C797S) was 1 to 10 nM. It also gave an IC50 (EGFR WT (wild type EGFR)) of 50 to 100 nM and an IC50 (A431 cells (EGFR WT); [5]) of 100 to 1000 nM.

For COc1cc2c(cc1Nc1ncc(Br)c(Nc3ccc4nccnc4c3P(C)(C)=O)n1)-c1cccnc1CCN2C [Compound 108], the IC50 [1, 3] was less than 10 nM, the IC50 [2, 4] was 10 to 50 nM and the IC50 (EGFR L858R/T790M/C797S) was less than 1 nM. The IC50 (EGFR WT (wild type EGFR)) was 10 to 50 nM and the IC50 (A431 cells (EGFR WT); [5]) was 100 to 1000 nM.

In the case of COc1cc2c(cc1Nc1ncc(Br)c(Nc3ccc4nccnc4c3P3(=O)CCN(C)CC3)n1)-c1cnn(C)c1CCN2C(C)C [Compound 91], the IC50 [1, 3] is reported as less than 10 nM, the IC50 [2, 4] is reported as 10 to 50 nM and the IC50 (EGFR L858R/T790M/C797S) is reported as less than 1 nM. For the same molecule, the IC50 (EGFR WT (wild type EGFR)) was less than 1 nM and the IC50 (A431 cells (EGFR WT); [5]) was 100 to 1000 nM.

With COc1cc2c(cc1Nc1ncc(Br)c(Nc3ccccc3P(C)(C)=O)n1)-c1cccnc1CCN2C [Compound 99] the IC50 [1, 3] was 10 to 50 nM, the IC50 [2, 4] was 10 to 50 nM and the IC50 (EGFR L858R/T790M/C797S) was 1 to 10 nM. For the same molecule, the IC50 (EGFR WT (wild type EGFR)) was 50 to 100 nM and the IC50 (A431 cells (EGFR WT); [5]) was 100 to 1000 nM.

COc1cc2c(cc1Nc1ncc(Br)c(Nc3ccc4nccnc4c3NS(C)(=O)=O)n1)-c1cnn(C)c1CCN2CC(F)(F)F [Compound 125] gave an IC50 [1, 3] of less than 10 nM, an IC50 [2, 4] of 10 to 50 nM and an IC50 (EGFR L858R/T790M/C797S) of 100 to 1000 nM. The IC50 (EGFR WT (wild type EGFR)) was greater than 1000 nM and the IC50 (A431 cells (EGFR WT); [5]) was 100 to 1000 nM.

With COc1ccc(Cn2ncc3c2CCN(C)c2cc(OC)c(Nc4ncc(Br)c(Nc5ccccc5P(C)(C)=O)n4)cc2-3)cc1 [Compound 34] the IC50 [1, 3] was 10 to 50 nM, the IC50 [2, 4] was 10 to 50 nM and the IC50 (EGFR L858R/T790M/C797S) was 1 to 10 nM. For the same molecule, the IC50 (EGFR WT (wild type EGFR)) was 50 to 100 nM and the IC50 (A431 cells (EGFR WT); [5]) was greater than 1000 nM.

In the case of COc1nc2c(cc1Nc1ncc(Br)c(Nc3ccc4nccnc4c3P(C)(C)=O)n1)-c1cnn(C)c1CCN2C [Compound 80], the IC50 [1, 3] is reported as less than 10 nM, the IC50 [2, 4] is reported as less than 10 nM and the IC50 (EGFR L858R/T790M/C797S) is reported as less than 1 nM. The IC50 (EGFR WT (wild type EGFR)) was 1 to 10 nM and the IC50 (A431 cells (EGFR WT); [5]) was 100 to 1000 nM.

In the case of COc1cc2c(cc1Nc1ncc(Br)c(Nc3ccccc3N(C(C)C)S(C)(=O)=O)n1)-c1cnn(C)c1CCN2 [Compound 122], the IC50 [1, 6] is reported as 10 to 50 nM, the IC50 [2, 7] is reported as 10 to 50 nM and the IC50 (EGFR L858R/T790M/C797S) is reported as 1 to 10 nM. The IC50 (EGFR WT (wild type EGFR)) was 50 to 100 nM and the IC50 (A431 cells (EGFR WT); [8]) was 100 to 1000 nM.
